Laboratory results reported in US5059588A, “Methods and compositions for healing bone using Gly His Lys: Copper” (ProCyte Corporation, Incorporated, priority 1989, dated 1991).
Values joined by “and” are separate entries in the source; they are usually repeats but may differ in a detail not shown here. Equal values may be shown once.

Tests used:
[1] = tested on: drill holes in bone (femur) of male rats; test: Healing of drill-hole defects in the femur of rats; type: in vivo, rat; settings: for bone healing activity: general statement
Description: In one representative study, male rats weighing approximately 350-400 grams received drill holes in bone which were then treated with pharmaceutical preparations containing GHL-Cu.
More specifically, on the day of surgery (Day 0), animals were sedated with pentobarbital (I.P., 35 mg/kg). The hair was clipped from the left rear upper limb, and the area was prepped in a sterile fashion. Using a #15 blade, a 2 cm incision was made on the lateral surface of the upper limb following the approximate location of the femur, extending from just below the crest of the ilium. The tensor fasciae latae muscle was exposed and incised parallel to the muscle filers (1 cm incision). Careful retraction of the muscle provided exposure of the vastus lateralis muscle overlying the femur. The approach to the femur was completed upon incision and retraction of this muscle. This provided exposure of 1 cm of the lateral and ventral surfaces of bone. Using a periosteal elevator, the surface of the femur was cleaned of periosteum. At this point, very little bleeding had been encountered. Using a Dremel drill fitted with a 1 mm diameter cutting burr, a hole was drilled in the femur to a depth of approximately 0.75 mm. Little bleeding was evident except in the rare case of marrow penetration. The area was irrigated and hemostasis achieved. At this point, a pharmaceutical preparation of the compositions of the present invention was applied to the exposed bone surface. The muscle was closed in layers using chromic suture, and the skin was closed with stainless steel wound clips. Structure and function of the muscles was intact following surgery, and very little, if any, morbidity was associated with the surgical procedure.
After 7 to 14 days, the animals were terminated and their femurs removed. Evidence of bone growth was determined from gross visualization of the defect using a Wild dissecting scope, and from subsequent histological preparations (decalcification, paraffin embedding, and Trichrome staining).
Results at 12 to 14 days following surgery utilizing pharmaceutical preparation B to accelerate the bone healing process are summarized in Table 2. Controls consisted of bones without treatment.
In a second study, defects were created in bones and pharmaceutical preparation E applied to the exposed bone in the same manner as described in Example 9.

[2] = tested on: bone models implanted in rats; test: Granulation tissue formation in stainless steel chambers (bone healing model) implanted subcutaneously in rats; type: in vivo, rat; settings: for PROTEIN: relative to BSA
From the text: The subcutaneous implantation of stainless steel chambers in rats provides a reproducible models to monitor the healing of bone. This model in many ways mimics the early events in the formation of granulation tissue found in fractures or other types of injury to bone. Implantation of these chambers triggers a series of responses which reflect the series of phases involved in bone healing--fibrin clot formation, infiltration of white cells, collagen synthesis, and new blood vessel formation.
The assay involves the implantation of two stainless steel chambers (1×2.5 cm cylindrical 312 SS, 20 mesh, with Teflon end caps) on each side of the dorsal midline of rats. After one week to allow for encapsulation of the chambers, one chamber on each rat was injected with 0.2 ml of a 10 mg/ml solution of GHL-Cu and the other with the same volume of saline. Injections are made on days […], 7, 8, 12, 13, 15 and 19. The chambers were removed on day 15 and day 29.
The chambers were lyophilized and the interior contents removed for biochemical analysis. The biochemical parameters examined include the total dry weight, protein content, angiogenesis (alkaline phosphatase activity), and collagen content (hydroxyproline content after acid hydrolysis). Significant increases were found in all the biochemical parameters tested when compounds of the present invention were used as compared to controls.
Protein content was determined by the method of Lowry (Lowry et al., J. Biol. Chem. 193:265-275, 1951) using Bovine Serum Albumin (BSA) as a standard. Angiogenesis was determined by measuring the amount of alkaline phosphatase activity using p-nitrophenyl phosphate as a substrate (Lyles et al., C. Biochem. Pharm. 33:2569-2574, 1984). The collagen content was determined by acid hydrolysis and a colorimetric assay for hydroxyproline (Bergman et al., R. Clin. Chim. Acta 27:347-349, 1970), an amino acid specific for collagen.
The total protein is expressed as mg protein (relative to BSA) per chamber, the angiogenesis as alkaline phosphatase (AP) units per chamber, where one unit=the amount of homogenate which causes an increase in absorbance at 405 nm of 1.0 per min., and the hydroxyproline (HP, Collagen Content) as μg HP per chamber. Comparison with control data is made by determining the ratio, treated/control (T/C) for each parameter.

Row | Substance | histology, periosteal layer (FIG. 6) ([1]; X40, Trichrome stain, versus placebo) | histology, new bone (FIG. 7) ([1]; X 63, Trichrome stain, versus placebo) | gross appearance of bone defect (FIG. 5) ([1]; day 7, versus placebo gel) | bone healing activity [1] | ANGIOGENESIS (alkaline phosphatase) ([2]; day 15) | COLLAGEN (hydroxyproline) ([2]; day 15) | DRY WEIGHT ([2]; day 15, chamber injected with 0.2 ml of 10 mg/ml solution) | T/C dry weight ([2]; day 15, ratio treated/control) | T/C protein ([2]; day 15, ratio treated/control) | PROTEIN ([2]; day 15) | ANGIOGENESIS (alkaline phosphatase) ([2]; day 29) | COLLAGEN (hydroxyproline) ([2]; day 29) | DRY WEIGHT ([2]; day 29) | T/C angiogenesis ([2]; day 29, ratio treated/control) | T/C collagen ([2]; day 29, ratio treated/control) | T/C dry weight ([2]; day 29, ratio treated/control) | T/C protein ([2]; day 29, ratio treated/control) | PROTEIN ([2]; day 29)
1 | glycyl-L-histidyl-L-lysine:copper(II) [GHL-Cu] | better developed and continuous | increase in density of new bone | influx of bony calcification and granulation tissue | have shown bone healing activity | 6.5 ± 3.2 AP units/chamber | 243 ± 215 μg HP/chamber | 92 ± 46 mg | ~ 2 and 2.2 | ~ 2 and 2.0 | 69 ± 32 mg/chamber | 20.3 ± 10.0 AP units/chamber | 1849 ± 546 μg HP/chamber | 165 ± 38 mg | 3.2 | 1.9 | 1.7 | 1.4 | 77 ± 19 mg/chamber
2 | L-lysyl-L-histidyl-glycine:copper(II) [LHG-Cu] | – | – | – | have shown bone healing activity | – | – | – | – | – | – | – | – | – | – | – | – | – | –
